Test results as given in PMC12858405, “Ideal efficacy photoswitching for chromocontrol of TRPC4/5 channel functions in live tissues” (Nature Chemical Biology, 2026).

Experiments:
heteromeric TRPC4:TRPC1 = target: T1, heteromeric TRPC4:TRPC1 (Homo sapiens, UniProt Q9UBN4); assay: Whole-cell recordings, HEK293 co-expressing TRPC4 and TRPC1; format: cell-based; conditions: 30 nM
T1 construct: expressed in transfected cells; host or cells: HEK293, transiently transfected
Source text: (§1) Müller, Niemeyer, et al., Schaefer & Thorn-Seshold 2025: Ideal Efficacy Photoswitching of TRPC4/5 in Tissue 3.3 Activation of heteromeric TRPC4:TRPC1 and TRPC5:TRPC1
(§2) Supplementary Figure 15: Photoswitching of ionic currents through heteromeric TRPC4:TRPC1 and TRPC5:TRPC1 channel complexes. Whole cell recordings from HEK293 cells that were transiently transfected to express the indicated TRPC isoforms were obtained in the whole cell mode with a voltage and photoswitching paradigm as illustrated in (A). (B-D) Superimposed recordings of 20 consecutive sweeps are shown for cells that ony express TRPC4 or TRPC5 (left), and for cells that co-express the respective TRPC channel along with TRPC1 (right). Note the characteristic change of the current-voltage relationship with smaller inward currents and stronger outward rectification in cells that co-express TRPC1. […]
(§3) or 10 nM (all other panels). The data shown are representative for 4-12 patched cells, each.
(§4) Currents through heteromeric complexes that are composed of TRPC4:TRPC1 or TRPC5:TRPC1 subunits can be unequivocally recognized on the basis of their unique biophysical properties with smaller unitary and global inward current amplitudes and a marked outward rectification.44 We show […]
(§5) also the heteromeric complexes TRPC5:TRPC1 and TRPC4:TRPC1 that are formed upon co-expression with TRPC1 (Supplementary Fig. 15). […]

heteromeric TRPC5:TRPC1 = target: T2, heteromeric TRPC5:TRPC1 (Homo sapiens, UniProt Q9UL62); assay: Whole-cell recordings, HEK293 co-expressing TRPC5 and TRPC1; format: cell-based; conditions: 10 nM
T2 construct: expressed in transfected cells; host or cells: HEK293, transiently transfected
T2 sequence (Q9UL62 whole entry): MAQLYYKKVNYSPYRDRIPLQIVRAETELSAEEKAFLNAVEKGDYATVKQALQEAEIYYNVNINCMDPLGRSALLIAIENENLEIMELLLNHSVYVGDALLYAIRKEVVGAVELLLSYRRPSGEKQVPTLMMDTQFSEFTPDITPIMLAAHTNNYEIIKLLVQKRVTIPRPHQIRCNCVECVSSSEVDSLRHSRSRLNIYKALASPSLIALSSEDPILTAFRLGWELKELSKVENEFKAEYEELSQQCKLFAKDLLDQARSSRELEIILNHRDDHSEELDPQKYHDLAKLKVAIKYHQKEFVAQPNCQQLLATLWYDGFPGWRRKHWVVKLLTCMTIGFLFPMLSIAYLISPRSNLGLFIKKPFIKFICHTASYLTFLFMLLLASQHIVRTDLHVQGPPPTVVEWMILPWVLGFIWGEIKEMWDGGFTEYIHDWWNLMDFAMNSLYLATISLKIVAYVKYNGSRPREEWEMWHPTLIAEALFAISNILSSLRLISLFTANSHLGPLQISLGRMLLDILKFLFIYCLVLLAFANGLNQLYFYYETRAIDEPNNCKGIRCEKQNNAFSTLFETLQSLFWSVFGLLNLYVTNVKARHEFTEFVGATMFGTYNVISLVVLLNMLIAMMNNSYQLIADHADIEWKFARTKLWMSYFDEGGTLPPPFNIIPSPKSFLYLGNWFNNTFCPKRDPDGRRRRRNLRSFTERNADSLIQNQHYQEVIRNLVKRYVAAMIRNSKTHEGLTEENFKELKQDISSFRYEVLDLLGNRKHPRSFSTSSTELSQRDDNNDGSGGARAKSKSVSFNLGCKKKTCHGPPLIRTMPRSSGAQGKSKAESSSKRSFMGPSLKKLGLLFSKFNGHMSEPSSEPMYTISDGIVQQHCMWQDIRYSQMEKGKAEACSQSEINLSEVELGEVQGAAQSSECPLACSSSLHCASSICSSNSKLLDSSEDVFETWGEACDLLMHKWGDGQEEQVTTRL
T2 sequence (P48995 whole entry partner): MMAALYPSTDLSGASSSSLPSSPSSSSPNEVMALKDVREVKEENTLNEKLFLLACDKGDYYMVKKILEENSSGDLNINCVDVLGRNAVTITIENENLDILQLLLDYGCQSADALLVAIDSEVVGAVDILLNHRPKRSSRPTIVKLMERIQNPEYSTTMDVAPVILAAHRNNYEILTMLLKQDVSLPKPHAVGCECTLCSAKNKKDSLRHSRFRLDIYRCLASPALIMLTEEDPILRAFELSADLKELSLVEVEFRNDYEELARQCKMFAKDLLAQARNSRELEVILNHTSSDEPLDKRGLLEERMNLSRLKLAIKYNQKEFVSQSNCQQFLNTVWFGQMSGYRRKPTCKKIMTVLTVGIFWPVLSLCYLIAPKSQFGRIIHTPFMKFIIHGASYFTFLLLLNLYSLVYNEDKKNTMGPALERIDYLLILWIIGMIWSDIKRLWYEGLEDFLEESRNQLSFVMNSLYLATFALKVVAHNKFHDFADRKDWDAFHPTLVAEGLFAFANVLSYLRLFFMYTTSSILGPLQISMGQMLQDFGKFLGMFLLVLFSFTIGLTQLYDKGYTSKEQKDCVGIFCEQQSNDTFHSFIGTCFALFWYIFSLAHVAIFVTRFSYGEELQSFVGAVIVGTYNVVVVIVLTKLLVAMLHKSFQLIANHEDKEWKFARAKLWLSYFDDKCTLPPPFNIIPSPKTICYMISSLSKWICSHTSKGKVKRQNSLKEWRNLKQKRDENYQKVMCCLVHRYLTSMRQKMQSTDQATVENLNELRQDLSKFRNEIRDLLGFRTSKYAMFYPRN
Source text: as §1, §2, §3, §4, §5

T1 sequence (Q9UBN4 whole entry): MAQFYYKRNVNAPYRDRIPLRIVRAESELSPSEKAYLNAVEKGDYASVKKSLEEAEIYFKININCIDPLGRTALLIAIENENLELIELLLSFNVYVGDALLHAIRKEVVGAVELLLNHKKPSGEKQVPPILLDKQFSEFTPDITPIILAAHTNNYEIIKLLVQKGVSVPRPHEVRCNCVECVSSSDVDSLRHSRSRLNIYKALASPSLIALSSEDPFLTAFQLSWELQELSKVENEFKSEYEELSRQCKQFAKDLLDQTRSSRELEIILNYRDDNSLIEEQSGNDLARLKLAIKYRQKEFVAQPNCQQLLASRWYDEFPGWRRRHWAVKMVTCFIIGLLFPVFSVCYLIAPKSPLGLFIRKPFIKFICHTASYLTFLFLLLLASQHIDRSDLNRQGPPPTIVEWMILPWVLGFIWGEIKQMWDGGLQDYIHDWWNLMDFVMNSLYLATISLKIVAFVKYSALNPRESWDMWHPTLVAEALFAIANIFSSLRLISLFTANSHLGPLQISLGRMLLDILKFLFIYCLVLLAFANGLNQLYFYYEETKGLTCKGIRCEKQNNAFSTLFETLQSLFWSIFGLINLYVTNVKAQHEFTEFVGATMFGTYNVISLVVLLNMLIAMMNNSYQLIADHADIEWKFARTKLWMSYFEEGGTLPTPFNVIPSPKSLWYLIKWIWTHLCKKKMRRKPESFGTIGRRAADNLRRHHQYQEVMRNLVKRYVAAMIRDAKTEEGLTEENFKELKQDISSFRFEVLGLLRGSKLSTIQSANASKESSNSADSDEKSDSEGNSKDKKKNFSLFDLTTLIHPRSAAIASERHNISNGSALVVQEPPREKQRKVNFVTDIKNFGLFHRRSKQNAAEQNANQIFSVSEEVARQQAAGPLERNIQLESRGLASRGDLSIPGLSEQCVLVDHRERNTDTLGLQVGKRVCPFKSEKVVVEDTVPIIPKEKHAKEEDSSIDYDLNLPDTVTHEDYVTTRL
T1 sequence (P48995 whole entry partner): as the sequence (P48995 whole entry partner) above

Row | Chromocontrol over heteromeric TRPC4:TRPC1 currents versus homomeric channels (heteromeric TRPC4:TRPC1) | Chromocontrol over heteromeric TRPC5:TRPC1 currents versus homomeric channels (heteromeric TRPC5:TRPC1) | Structure (SMILES)
1 | comparable chromocontrol | comparable chromocontrol | Cn1c(=O)n(CCCO)c(=O)c2c1nc(Oc1ccc(N=Nc3ccccc3)c(OC(F)(F)F)c1)n2Cc1ccc(Cl)cc1 [AzPico]
2 | comparable chromocontrol | comparable chromocontrol | Cn1c(=O)n(CCCO)c(=O)c2c1nc(Oc1ccc(N=Nc3ccccc3)c(Cl)c1)n2Cc1ccc(Cl)cc1 [AzHC]
